Test results published in patent US6190664A, “Depigmenting cosmetic skin-care composition and use thereof” (C 3 D, priority 1995, dated 2001).

Test system: Tyrosinase
Test: In vitro inhibition of tyrosinase (Dopachrome at 475 nm, substrate L-Dopa)
Assay type: biochemical
Details: for % of activity: controls = 100%
Procedure: The following test then allows to measure the inhibition of tyrosinase while dosing Dopachrome which is a coloured compound which may spectroscopically be dosed 475 nm.
In order to study the influence of some compounds on the enzymatic activity of tyrosinase, the enzymatic kinetics are achieved.
The reaction is performed at 25° C. in phosphate buffer pH7. Tyrosinase is brought together with its substrate L-Dopa. In the reaction medium it may be added the molecule to be studied.
One compares further the variation in optical density per minute of the test (in the presence of the molecule to be studied) to that of the controls (without molecule). The influence of the molecule on tyrosinase activity will be deduced. The results are then expressed as a percentage of activity knowing that the controls show 100% activity.
Appearance of Dopachrome at 475 nm is followed for 3 minutes.

Row | % of inhibition (tested concentration 10 mg/ml) [%] | % of activity (tested concentration 10 mg/ml) [%] | Structure (SMILES) | % of inhibition (tested concentration 4 mg/ml) [%] | % of activity (tested concentration 4 mg/ml) [%] | % of inhibition (tested concentration 8 mg/ml) [%] | % of activity (tested concentration 8 mg/ml) [%] | % of inhibition (tested concentration 16 mg/ml) [%] | % of activity (tested concentration 16 mg/ml) [%] | % of inhibition (tested concentration 1 mg/ml) [%] | % of activity (tested concentration 1 mg/ml) [%]
1 | – | – | Oc1ccc(O)cc1 [Hydroquinone] | 0 | 241.9 | 0 | 229.41 | 0 | 112.53 | – | –
2 | – | – | CCCCCCCCCCCCCCCC(=O)OC[C@H](O)[C@H]1OC(=O)C(O)=C1O [Ascorbyl Palmitate] | – | – | – | – | – | – | 66 | 34
3 | 80 | 20 | O=c1cc(CO)occ1O [Kojic acid] | – | – | – | – | – | – | 71 | 29
